In patent US20260070945A1, “MACROCYCLIC IMMUNOMODULATORS” (Bristol-Myers Squibb Company, priority 2022, published 2026):
Where a SMILES comes first, the peptide text is derived from it. Bridges are numbered along the chain shown (N, C = ends). [ ]: non-standard residue; d: D form. The star is where a group is joined. Phe(4-COOH) = N[C@@H](Cc1ccc(C(=O)O)cc1)C(=O)O; Bip = N[C@@H](Cc1ccc(-c2ccccc2)cc1)C(=O)O; 4Pal = N[C@@H](Cc1ccncc1)C(=O)O; Cha = N[C@@H](CC1CCCCC1)C(=O)O; Cit = NC(=O)NCCC[C@H](N)C(=O)O; 3Abz = Nc1cccc(C(=O)O)c1; 4Abz = Nc1ccc(C(=O)O)cc1; Carboxymethyl = O=C(O)C*; NMeA = CN[C@@H](C)C(=O)O; Orn = NCCC[C@H](N)C(=O)O; Aun = NCCCCCCCCCCC(=O)O; Dab = NCC[C@H](N)C(=O)O; Dap = NC[C@H](N)C(=O)O; AEEA = NCCOCCOCC(=O)O

Target: T1, PD-1/PD-L1 interaction (PE-labeled human PD-L1-Ig binding to Jurkat cell line over-expressing human PD-1) (Homo sapiens, UniProt Q15116)
T1 construct: expressed in transfected cells; host or cells: Jurkat
T1 sequence (Q15116 25-288): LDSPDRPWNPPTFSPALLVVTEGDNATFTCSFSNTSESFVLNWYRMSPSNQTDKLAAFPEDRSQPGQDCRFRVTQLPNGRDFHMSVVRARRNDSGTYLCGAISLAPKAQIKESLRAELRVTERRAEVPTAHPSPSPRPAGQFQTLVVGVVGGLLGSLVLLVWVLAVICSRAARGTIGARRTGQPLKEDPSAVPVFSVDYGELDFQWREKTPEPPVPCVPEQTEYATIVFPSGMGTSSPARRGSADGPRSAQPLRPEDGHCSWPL
Test: Jurkat-PD-1 Cell Binding High-Content Screening Assay (CBA)
Conditions: Jurkat-hPD-1 cells, PE-labeled PD-L1-Ig 20 nM final; read-out: Jurkat HPD1 PDL1 IC50
In short: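 Jurkat-hPD-1 cells (8×10^3/well) in DMEM with 10% fetal calf serum were preincubated with compound for 2 h at 37 °C. PE-labeled PD-L1-Ig was then added at 20 nM final for 1 h. Cells were fixed in paraformaldehyde with Hoechst 33342, washed and imaged by high-content imaging.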

SMILES | IC50 [nM]
CC(C)C[C@@H]1NC(=O)[C@H](Cc2c[nH]c3ccccc23)NC(=O)[C@H](CC(=O)O)NC(=O)[C@H](Cc2ccncc2)NC(=O)[C@H](Cc2ccc(OCC(=O)O)cc2)NC(=O)CSC[C@@H](C(=O)Nc2ccc(C(=O)NCCCCCCCCCCC(=O)O)cc2)NC(=O)[C@H](CCN)NC(=O)[C@H](C(C)C)NC(=O)[C@H](CC2CCCCC2)NC(=O)[C@H](CCN)NC(=O)[C@@H](CC(C)C)NC(=O)[C@H](C)N(C)C(=O)[C@H](C(C)C)NC(=O)[C@H](Cc2ccc(-c3ccccc3)cc2)NC1=O [Example 1212] ({CH2CO}-Y(Carboxymethyl)[4Pal]DWL[Bip]V[NMeA][dL][Dab][Cha]V[Dab]C[4Abz][Aun]-OH; thioether N-14) | 301
CC(C)C[C@@H]1NC(=O)[C@H](Cc2c[nH]c3ccccc23)NC(=O)[C@H](CC(=O)O)NC(=O)[C@H](Cc2ccncc2)NC(=O)[C@H](Cc2ccc(OCC(=O)O)cc2)NC(=O)CSC[C@@H](C(=O)Nc2ccc(C(=O)NCCCCCCCCCCC(=O)O)cc2)NC(=O)[C@H](CCCN)NC(=O)[C@H](C(C)C)NC(=O)[C@H](CC2CCCCC2)NC(=O)[C@H](CCN)NC(=O)[C@@H](CC(C)C)NC(=O)[C@H](C)N(C)C(=O)[C@H](C(C)C)NC(=O)[C@H](Cc2ccc(-c3ccccc3)cc2)NC1=O [Example 1213] ({CH2CO}-Y(Carboxymethyl)[4Pal]DWL[Bip]V[NMeA][dL][Dab][Cha]V[Orn]C[4Abz][Aun]-OH; thioether N-14) | 276
CC(C)C[C@@H]1NC(=O)[C@H](Cc2c[nH]c3ccccc23)NC(=O)[C@H](CC(=O)O)NC(=O)[C@H](Cc2ccncc2)NC(=O)[C@H](Cc2ccc(OCC(=O)O)cc2)NC(=O)CSC[C@@H](C(=O)Nc2ccc(C(=O)NCCCCCCCCCCC(=O)O)cc2)NC(=O)[C@H](CCCNC(=N)N)NC(=O)[C@H](C(C)C)NC(=O)[C@H](CC2CCCCC2)NC(=O)[C@H](CCN)NC(=O)[C@@H](CC(C)C)NC(=O)[C@H](C)N(C)C(=O)[C@H](C(C)C)NC(=O)[C@H](Cc2ccc(-c3ccccc3)cc2)NC1=O [Example 1214] ({CH2CO}-Y(Carboxymethyl)[4Pal]DWL[Bip]V[NMeA][dL][Dab][Cha]VRC[4Abz][Aun]-OH; thioether N-14) | 77.2
CC(C)C[C@@H]1NC(=O)[C@H](Cc2c[nH]c3ccccc23)NC(=O)[C@H](CC(=O)O)NC(=O)[C@H](Cc2ccc(C(=O)O)cc2)NC(=O)[C@H](Cc2ccc(OCC(=O)O)cc2)NC(=O)CSC[C@@H](C(=O)N[C@@H](CCCN)C(=O)NCCOCCOCC(=O)NCCCCCCCCCCC(N)=O)NC(=O)[C@H](CCCNC(N)=O)NC(=O)[C@H](C(C)C)NC(=O)[C@H](CC2CCCCC2)NC(=O)[C@H](CCN)NC(=O)[C@@H](CC(C)C)NC(=O)[C@H](C)N(C)C(=O)[C@H](C(C)C)NC(=O)[C@H](Cc2ccc(-c3ccccc3)cc2)NC1=O [Example 1215] ({CH2CO}-Y(Carboxymethyl)[Phe(4-COOH)]DWL[Bip]V[NMeA][dL][Dab][Cha]V[Cit]C[Orn][AEEA][Aun]-NH2; thioether N-14) | 10.8
CC(C)C[C@@H]1NC(=O)[C@H](Cc2c[nH]c3ccccc23)NC(=O)[C@H](CC(=O)O)NC(=O)[C@H](Cc2ccncc2)NC(=O)[C@H](Cc2ccc(OCC(=O)O)cc2)NC(=O)CSC[C@@H](C(=O)Nc2cccc(C(=O)NCCCCCCCCCCC(=O)O)c2)NC(=O)[C@H](CN)NC(=O)[C@H](C(C)C)NC(=O)[C@H](CC2CCCCC2)NC(=O)[C@H](CCN)NC(=O)[C@@H](CC(C)C)NC(=O)[C@H](C)N(C)C(=O)[C@H](C(C)C)NC(=O)[C@H](Cc2ccc(-c3ccccc3)cc2)NC1=O [Example 1216] ({CH2CO}-Y(Carboxymethyl)[4Pal]DWL[Bip]V[NMeA][dL][Dab][Cha]V[Dap]C[3Abz][Aun]-OH; thioether N-14) | 265
